Test results published in paper PMC10743971, “MP Allosterically Activates AMPK to Enhance ABCA1 Stability by Retarding the Calpain-Mediated Degradation Pathway” (International Journal of Molecular Sciences, 2023).

Tests used:
AMPK (AMPKα1β1γ1) [1] = molecular target: T1, AMPK (AMPKα1β1γ1) (Rattus norvegicus, UniProt P80385); assay: STD-NMR and NMR competition titration against MP; format: binding
T1 construct: gene Prkag1; recombinant full-length AMPKα1β1γ1 heterotrimer, 6×His tag at the N-terminal end of the α-subunit; with AMPK α1 (Prkaa1) and β1 (Prkab1) subunits
T1 sequence (P80385 whole entry): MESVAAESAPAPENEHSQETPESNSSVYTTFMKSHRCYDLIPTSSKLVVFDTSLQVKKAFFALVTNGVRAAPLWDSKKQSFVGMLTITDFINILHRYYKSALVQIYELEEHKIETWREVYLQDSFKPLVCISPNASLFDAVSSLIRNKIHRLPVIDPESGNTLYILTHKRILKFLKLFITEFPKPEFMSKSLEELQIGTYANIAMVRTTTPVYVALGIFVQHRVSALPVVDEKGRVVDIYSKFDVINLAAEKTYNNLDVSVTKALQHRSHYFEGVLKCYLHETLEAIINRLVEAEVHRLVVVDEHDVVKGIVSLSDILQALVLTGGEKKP
T1 sequence (P54645 whole entry partner): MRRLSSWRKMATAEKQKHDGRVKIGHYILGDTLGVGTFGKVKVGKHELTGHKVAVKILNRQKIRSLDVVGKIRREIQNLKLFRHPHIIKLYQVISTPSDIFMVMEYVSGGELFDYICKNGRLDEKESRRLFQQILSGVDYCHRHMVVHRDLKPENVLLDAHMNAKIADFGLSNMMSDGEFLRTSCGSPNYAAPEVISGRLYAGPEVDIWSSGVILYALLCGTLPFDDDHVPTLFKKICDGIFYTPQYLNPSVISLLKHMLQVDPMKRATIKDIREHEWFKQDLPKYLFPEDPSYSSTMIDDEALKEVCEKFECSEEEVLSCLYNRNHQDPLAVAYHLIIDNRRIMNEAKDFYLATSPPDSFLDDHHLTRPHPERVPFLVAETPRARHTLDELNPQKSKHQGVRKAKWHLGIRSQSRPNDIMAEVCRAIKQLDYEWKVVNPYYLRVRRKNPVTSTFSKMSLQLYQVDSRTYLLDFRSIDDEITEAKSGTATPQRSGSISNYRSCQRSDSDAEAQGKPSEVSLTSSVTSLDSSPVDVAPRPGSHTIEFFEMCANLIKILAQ
T1 sequence (P80386 2-270 partner): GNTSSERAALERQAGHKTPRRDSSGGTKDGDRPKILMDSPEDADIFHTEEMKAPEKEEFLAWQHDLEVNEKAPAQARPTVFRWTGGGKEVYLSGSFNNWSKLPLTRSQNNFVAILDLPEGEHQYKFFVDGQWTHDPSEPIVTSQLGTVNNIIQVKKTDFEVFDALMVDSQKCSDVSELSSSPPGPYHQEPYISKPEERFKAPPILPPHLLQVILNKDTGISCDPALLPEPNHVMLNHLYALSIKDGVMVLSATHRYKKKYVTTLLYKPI

AMPK (AMPKα1β1γ1) [2] = molecular target: T1, AMPK (AMPKα1β1γ1); assay: MST (Kd […]); ITC (Kd […]); STD-NMR; CD; format: binding

| Kd (AMPK (AMPKα1β1γ1) [2]) [µM] | Compound | STD-NMR and NMR competition titration against MP (AMPK (AMPKα1β1γ1) [1]) |
| --- | --- | --- |
| – | Nc1ncnc2c1ncn2[C@@H]1O[C@H](COP(=O)(O)O)[C@@H](O)[C@H]1O [AMP, adenosine monophosphate] | adenosine monophosphate (AMP) and MP bind directly to AMPK |
| 4.27 | O=P(O)(O)OC[C@H]1O[C@@H](n2cnc3c(Nc4cccc(O)c4)ncnc32)[C@H](O)[C@@H]1O [MP, ((2R,3S,4R,5R)-3,4-dihydroxy-5-(6-((3-hydroxyphenyl)amino)-9H-purin-9-yl)tetrahydrofuran-2-yl) methyl dihydrogen phosphate] | – |
